{"source": "patent USRE39616E1", "about": "“Aminoindan derivatives” (priority 1996, dated 2007)", "key": {"[1]": {"target": "T1, Human erythrocyte acetylcholinesterase (Homo sapiens, UniProt P22303)", "T1 construct": "Human erythrocyte acetylcholinesterase (type XIII, Sigma Israel); purchased Sigma Israel type XIII; host or cells: human erythrocytes", "T1 sequence (P22303 32-617 isoform P22303-2 limits assumed)": "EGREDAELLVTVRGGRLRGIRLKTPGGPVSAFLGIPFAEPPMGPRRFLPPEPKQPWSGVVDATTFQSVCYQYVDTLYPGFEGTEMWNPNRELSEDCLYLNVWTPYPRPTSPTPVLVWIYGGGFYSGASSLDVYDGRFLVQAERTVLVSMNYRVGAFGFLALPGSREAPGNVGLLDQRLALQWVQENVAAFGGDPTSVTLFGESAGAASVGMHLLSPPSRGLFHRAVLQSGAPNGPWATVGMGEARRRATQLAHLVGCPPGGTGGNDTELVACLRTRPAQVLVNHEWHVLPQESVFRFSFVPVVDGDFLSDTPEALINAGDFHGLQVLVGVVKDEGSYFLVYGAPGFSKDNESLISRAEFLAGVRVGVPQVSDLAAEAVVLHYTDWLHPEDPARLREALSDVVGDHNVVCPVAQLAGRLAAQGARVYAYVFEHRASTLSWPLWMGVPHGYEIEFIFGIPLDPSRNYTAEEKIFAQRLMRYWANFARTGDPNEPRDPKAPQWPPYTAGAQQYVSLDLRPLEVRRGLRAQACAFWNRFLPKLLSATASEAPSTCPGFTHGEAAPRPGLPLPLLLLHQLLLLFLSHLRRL", "assay": "biochemical", "assay_type": "biochemical", "method": "Human erythrocyte acetylcholinesterase (type XIII, Sigma Israel), was prepared in a stock solution of 1 U/ml, containing Triton (1%) and bovine serum albumin (0.05%) in phosphate buffer (pH 8). The enzyme (0.05U) was incubated with 3-5 different concentrations of test compound (in triplicate) for periods of from 15 to 60 minutes at 37° C. […] The percentage inhibition of AChE by each concentration of drug is calculated by comparison with that of enzyme in the absence of drug."}, "MAO-B": {"target": "T2, MAO-B (Mus musculus, UniProt Q8BW75)", "T2 construct": "from tissue; host or cells: mouse brain", "T2 sequence (Q8BW75 1-520)": "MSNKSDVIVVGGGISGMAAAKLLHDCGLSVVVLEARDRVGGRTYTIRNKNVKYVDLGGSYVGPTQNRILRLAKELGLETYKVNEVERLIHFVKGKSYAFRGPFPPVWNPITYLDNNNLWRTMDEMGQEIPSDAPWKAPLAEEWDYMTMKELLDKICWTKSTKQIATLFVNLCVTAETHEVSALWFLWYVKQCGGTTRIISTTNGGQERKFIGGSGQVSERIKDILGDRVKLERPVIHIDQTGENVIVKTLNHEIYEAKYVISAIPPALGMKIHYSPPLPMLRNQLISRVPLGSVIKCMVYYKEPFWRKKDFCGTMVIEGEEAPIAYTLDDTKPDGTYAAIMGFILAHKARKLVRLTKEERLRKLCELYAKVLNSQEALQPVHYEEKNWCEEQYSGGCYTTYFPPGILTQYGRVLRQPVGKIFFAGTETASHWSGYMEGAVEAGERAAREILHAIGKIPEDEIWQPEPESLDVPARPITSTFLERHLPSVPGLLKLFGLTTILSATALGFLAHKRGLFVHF", "assay": "Inhibition of MAO activity ex vivo (brain)", "assay_type": "in vivo, mice", "conditions": "mice, brain tissue", "method": "(§1) Substrate concentrations used were 50 μM (PEA) and 1 mM (5-HT).\n(§2) Male Sabra mice, weighing 45-50 g were injected with test compound solutions (prepared in 0.9% saline). Each dose was administered to two or three mice. The mice were sacrificed two hours after drug administration or at a time corresponding to the peak AChE inhibition time (see Table 11). The brain and liver were rapidly dissected and stored in appropriate vials on ice. The tissues were weighed, diluted to ½ in sucrose 0.3M and stored at −20° C. before performance of the MAO assay described above. The results given in Table 11 relate to measurements made on brain tissue only."}, "MAO-A [2]": {"target": "T3, MAO-A (Mus musculus, UniProt Q64133)", "T3 construct": "from tissue; host or cells: mouse brain", "T3 sequence (Q64133 1-526)": "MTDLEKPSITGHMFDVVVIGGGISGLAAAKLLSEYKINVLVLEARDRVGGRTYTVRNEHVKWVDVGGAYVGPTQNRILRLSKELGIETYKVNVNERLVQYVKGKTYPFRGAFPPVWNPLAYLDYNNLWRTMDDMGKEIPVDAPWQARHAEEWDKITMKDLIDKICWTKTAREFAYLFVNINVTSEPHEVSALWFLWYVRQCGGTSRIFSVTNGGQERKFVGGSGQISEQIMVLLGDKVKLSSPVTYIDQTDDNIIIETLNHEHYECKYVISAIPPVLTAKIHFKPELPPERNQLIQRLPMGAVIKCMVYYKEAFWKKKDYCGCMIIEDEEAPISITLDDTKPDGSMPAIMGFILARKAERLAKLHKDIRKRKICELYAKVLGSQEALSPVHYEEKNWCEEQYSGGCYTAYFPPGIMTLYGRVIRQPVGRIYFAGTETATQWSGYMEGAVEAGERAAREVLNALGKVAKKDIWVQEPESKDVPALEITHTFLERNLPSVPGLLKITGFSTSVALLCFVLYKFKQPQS", "assay": "Inhibition of MAO activity ex vivo (brain)", "assay_type": "in vivo, mice", "conditions": "mice, brain tissue", "method": "as §1, §2"}, "[3]": {"tested_on": "mice, hypobaric hypoxic model", "assay": "animal or person", "assay_type": "in vivo", "conditions": "Mus musculus; 0.2 mg/kg sc, 30 min before hypoxia; read-out: Protection (survival time)", "from_the_text": "A 12 liter desiccator (desiccator A) and a 2.5 liter desiccator (desiccator B) were separately connected to a vacuum pump. Desiccator B was disconnected and allowed to equilibrate with room air whilst desiccator A was evacuated to a pressure of 100 mmHg. Four male ICR albino mice (22-28 g) were placed in desiccator B. Desiccator B was then closed to room air and connected to desiccator A. The pressure inside desiccator B was monitored using a mercury manometer and at the point were the pressure in desiccator B reached 200 mmpg (usually within 14 seconds), the two desiccators were disconnected from the vacuum pump and the pump switched off. The survival time from the moment of induction of hypoxia to the time of cessation of respiration was recorded for each mouse for a maximum of 15 minutes after which time room air was reintroduced to desiccator B. Survivors were monitored for signs of lethargy or vitality.\nEffect of drug treatment was assessed as the percent of the survival time of the drug treated group with respect to the saline injected or vehicle injected control group. […] The effect of each dose of test drug was determined in duplicate i.e. two groups of 4 mice.\nPositive reference drugs were sodium pentobarbital at a dose of 40 mg/kg, and diazepam 10 mg/kg given 0.5 h prior to hypoxia, physostigmine 0.2 and 0.4 mg/kg and neostigmine 0.2 mg/kg given sc 30 min before hypoxia. Methyl atropine 1 mg/kg was given sc. 10 min. before physostigmine.\nTest drugs were dissolved in 0.9% saline, and injected sc. in the nip of the neck at a dose in accordance with body weight, 60-90 min. before hypoxia. The volume of injection was 0.2-0.3 mL per mouse (10 mL/kg). The initial dose was about one third of the reported LD50 for acetylcholine esterase inhibition. If no protection could be obtained, the dose was further increased to the nearest non-toxic dose. In case of protection, the dose was further reduced in an attempt to locate the “protective” dose range."}, "MAO-A [4]": {"target": "T4, MAO-A (Rattus norvegicus, UniProt P21396)", "T4 sequence (P21396 1-526)": "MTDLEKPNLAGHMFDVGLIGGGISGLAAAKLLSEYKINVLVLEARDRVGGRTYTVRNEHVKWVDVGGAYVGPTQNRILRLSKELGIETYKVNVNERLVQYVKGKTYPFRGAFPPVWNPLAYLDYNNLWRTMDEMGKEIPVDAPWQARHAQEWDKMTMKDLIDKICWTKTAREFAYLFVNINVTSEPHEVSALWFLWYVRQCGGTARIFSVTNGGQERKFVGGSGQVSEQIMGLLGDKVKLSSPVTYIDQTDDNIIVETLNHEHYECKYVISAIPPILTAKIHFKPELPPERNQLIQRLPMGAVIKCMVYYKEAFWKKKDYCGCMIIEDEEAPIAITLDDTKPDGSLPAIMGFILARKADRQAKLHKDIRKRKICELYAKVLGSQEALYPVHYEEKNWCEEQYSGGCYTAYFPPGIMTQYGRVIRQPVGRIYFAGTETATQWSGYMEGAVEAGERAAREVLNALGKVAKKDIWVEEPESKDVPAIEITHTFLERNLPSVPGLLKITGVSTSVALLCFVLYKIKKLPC", "assay": "Inhibition of MAO activity in vitro, 5-HT as substrate", "assay_type": "biochemical", "parameters": "The MAO enzyme source was a homogenate of rat brain in 0.3M sucrose; from tissue; host or cells: rat brain homogenate, 600 g supernatant", "conditions": "5-HT substrate", "method": "as §1"}, "whole brain AChE": {"target": "T5, whole brain AChE (Mus musculus, UniProt P21836)", "T5 sequence (P21836 32-614)": "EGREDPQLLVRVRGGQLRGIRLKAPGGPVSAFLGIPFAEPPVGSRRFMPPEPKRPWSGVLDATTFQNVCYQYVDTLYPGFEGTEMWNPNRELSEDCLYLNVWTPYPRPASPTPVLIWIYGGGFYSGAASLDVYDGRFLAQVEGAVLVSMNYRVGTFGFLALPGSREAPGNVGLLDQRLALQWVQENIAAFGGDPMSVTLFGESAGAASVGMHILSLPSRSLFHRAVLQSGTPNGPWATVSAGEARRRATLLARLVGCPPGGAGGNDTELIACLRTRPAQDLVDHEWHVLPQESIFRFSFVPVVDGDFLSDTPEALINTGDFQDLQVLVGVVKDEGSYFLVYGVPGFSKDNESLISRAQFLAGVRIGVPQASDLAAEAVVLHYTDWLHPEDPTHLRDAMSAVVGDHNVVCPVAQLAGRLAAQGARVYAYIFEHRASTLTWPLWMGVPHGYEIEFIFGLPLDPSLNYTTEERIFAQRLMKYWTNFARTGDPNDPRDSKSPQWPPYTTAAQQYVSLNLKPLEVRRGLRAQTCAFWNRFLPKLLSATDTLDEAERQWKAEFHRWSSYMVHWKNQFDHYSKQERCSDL", "conditions": "for AChE Inhibition Ex vivo ED50 (AC): mice, whole brain, at peak of activity", "protocol": "Test drugs or saline were administered sub-cutaneously to male mice (Sabra strain, 28-35 g). […] The mice were sacrificed 15, 30, 50, 70, 90, 120 or 180 minutes after drug administration, the brains rapidly removed (minus cerebellum), weighed and homogenized in 0.1 M phosphate buffer, pH 8.0, containing Triton (1 mg/100 g tissue) and centrifuged to remove cell debris. Aliquots (25 μl) of the supernatant were then incubated with acetylthiocholine and DTNB. AChE activity was measured as described above. The % inhibition of whole brain AChE by each dose of drug was calculated by comparison with enzyme activity from 3 saline treated control mice run at the same time."}, "mice": {"tested_on": "mice", "conditions": "mice, within 6 hours after administration", "protocol": "Therapeutic Ratio was calculated as LD50 divided by ED50 of ex vivo acetylcholine esterase inhibition."}, "[5]": {"conditions": "read-out: AChE Inhibition In vitro IC50"}, "[6]": {"conditions": "human erythrocyte AChE, at time of peak activity, read-out: AChE Inhibition In vitro IC50"}}, "note": "Counter-ions that a name gives are not always drawn. Like-named read-outs stand apart in the source and are kept apart here.", "data": [{"compound": "C#CCNC1CCc2cccc(OC(=O)N(C)CC)c21", "note": "(stereo not shown) [Compound 33]", "values": [{"measurement": "IC50", "setting": "[1]; AChE Inhibition In vitro IC50", "result": 540, "unit": "µM"}, {"measurement": "MAO-B Inhibition Ex vivo ED50", "setting": "MAO-B", "result": 1000, "unit": "µmol/kg"}, {"measurement": "MAO-A Inhibition Ex vivo ED50", "setting": "MAO-A [2]", "result": ">>1200 μmoles/kg"}]}, {"compound": "CN(C(=O)Oc1ccc2c(c1)C(N)CC2)C1CCCCC1", "note": "(stereo not shown) [Compound 17]", "values": [{"measurement": "IC50", "setting": "[1]; [5]", "result": 4, "unit": "µM"}]}, {"compound": "CN(C)C(=O)Oc1cccc([N+](C)(C)C)c1", "note": "[neostigmine, reference compound]", "values": [{"measurement": "response vs control in vivo at 0.2 mg/kg", "setting": "[3]", "result": "141 ± 32", "unit": "%"}]}, {"compound": "CCCN(C)C(=O)Oc1ccc2c(c1)C(N)CC2", "note": "(stereo not shown) [Compound 2]", "values": [{"measurement": "IC50", "setting": "[1]; [5]", "result": 7.3, "unit": "µM"}, {"measurement": "IC50", "setting": "MAO-A [4]; rat brain homogenate, read-out: MAO-A Inhibition In vitro IC50", "result": 32, "unit": "µM"}]}, {"compound": "C#CCNC1CCc2ccc(OC(=O)N(C)CC)cc21", "note": "(stereo not shown) [Compound 60]", "values": [{"measurement": "IC50", "setting": "[1]; AChE Inhibition In vitro IC50", "result": 42, "unit": "µM"}]}, {"compound": "C#CCNC1CCc2ccc(OC(=O)N(CC)C3CCCCC3)cc21", "note": "(stereo not shown) [Compound 85]", "values": [{"measurement": "IC50", "setting": "[1]; [6]", "result": 17, "unit": "µM"}, {"measurement": "AChE Inhibition Ex vivo ED50 (AC)", "setting": "whole brain AChE", "result": ">100", "unit": "µmol/kg"}]}, {"compound": "C#CCNC1CCc2ccc(OC(=O)N(C)C)cc21", "note": "(single isomer, unassigned) [Compound 55]", "values": [{"measurement": "MAO-B Inhibition Ex vivo ED50", "setting": "MAO-B", "result": ">100", "unit": "µmol/kg"}, {"measurement": "MAO-A Inhibition Ex vivo ED50", "setting": "MAO-A [2]", "result": ">100", "unit": "µmol/kg"}]}, {"compound": "C#CCNC1CCc2ccc(OC(=O)N(C)CCCC)cc21", "note": "(stereo not shown) [Compound 86]", "values": [{"measurement": "IC50", "setting": "[1]; [5]", "result": 10.5, "unit": "µM"}]}, {"compound": "C#CCNC1CCc2ccc(OC(=O)N(CC)CCCC)cc21", "note": "(stereo not shown) [Compound 83]", "values": [{"measurement": "IC50", "setting": "[1]; [6]", "result": 80, "unit": "µM"}]}, {"compound": "CCN(C)C(=O)Oc1ccc2c(c1)C(N)CC2", "note": "(stereo not shown) [Compound 3, 6-(N-Me,N-Et Carbamyloxy) aminoindan HCl]", "values": [{"measurement": "AChE Inhibition Ex vivo ED50 (AC)", "setting": "whole brain AChE", "result": 46.3, "unit": "µmol/kg"}, {"measurement": "AChE Inhibition Time to peak activity t", "setting": "whole brain AChE; mouse, in vivo", "result": "60 to 90", "unit": "min"}, {"measurement": "AChE Inhibition Time to return to 50% of peak t", "setting": "whole brain AChE; mouse, in vivo", "result": ">180", "unit": "min"}, {"measurement": "Acute Toxicity LD50 (LD)", "setting": "mice", "result": 950, "unit": "µmol/kg"}, {"measurement": "IC50", "setting": "MAO-A [4]; MAO-A Inhibition In vitro IC50, rat brain homogenate", "result": 12.6, "unit": "µM"}]}]}
